Assay results: patent US20080274892A1, “Novel Haloalkylsulfonanilide Derivative, Herbicide, and Method of Use Thereof” (priority 2005, published 2008)

Assays:
barnyard glass = assay: Test Example 2: herbicidal efficacy on rice paddy weeds post-emergence; assay type: in vivo, Echinochloa crus-galli; conditions: post-emergence, one leaf stage, 21 days after treatment
Procedure, shortened: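 Plastic pots of 75 cm^2 were filled with clay loam soil and sown with barnyard glass and bulrush seeds, then topped with 75 cm^3 soil containing false pimpernel seeds. The pots were flooded to 5 cm water depth and held in a hot house. Twenty-one days after treatment, herbicidal efficacy was graded against an untreated control.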

bulrush [1] = assay: as above; assay type: in vivo, Scirpus juncoides; conditions: post-emergence, one leaf stage, 21 days after treatment
[2] = system: transplanted paddy rice plant and Bulrush; assay: Test Example 5: selectivity between transplanted paddy rice plant and weeds; assay type: in vivo; conditions: (highest dosage with no phytotoxicity to paddy rice)/(lowest dosage with effective level 4 on Bulrush); rice 3000-100 g/ha, Bulrush 300-10 g/ha; 21 days
Experimental: (§1) The standard of judgment for herbicidal efficacy (degree of growth inhibition) and phytotoxicity 4 . . . 90%-100% of herbicidal efficacy or phytotoxicity 3 . . . 70%-89% of herbicidal efficacy or phytotoxicity 2 . . . 40%-69% of herbicidal efficacy or phytotoxicity 1 . . . 1%-39% of herbicidal efficacy or phytotoxicity 0 . . . 0% of herbicidal efficacy or phytotoxicity
Phytotoxicity test for transplanted paddy rice plants was carried out, as in Test Example 3, by the treatment of 3000, 1000, 300 and 100 (g/ha of the active ingredient) dosage, and herbicidal test to weed post-emergence was carried out to Burlush seeded as in Test Example 2 treating at 300, 100, 30 and 10 (g/ha) dosage. The pots were kept in a hot house for 21 days after the treatment, and the phytotoxicity and the herbicidal efficacy was investigated and evaluated according to the standard in Test Example 1 by comparing with the untreated control. […] Further, as a comparative compound, the compound No. 6-28 described in the JP-A-2004-107322 was used.

false pimpernel [3] = assay: Test Example 1: herbicidal efficacy on rice paddy weeds pre-emergence; assay type: in vivo, Lindernia pyxidaria; conditions: 21 days
[4] = system: paddy rice plant (cultivar: Nihonbare); assay: Test Example 3: phytotoxicity test for transplanted paddy rice plant; assay type: in vivo; conditions: transplanted rice, 21 days after treatment
Procedure, shortened: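 Clay loam soil was placed in a 75 cm^2 plastic pot and flooded to a water depth of 5 cm. Two Nihonbare paddy rice plants at the two-leaf stage were transplanted 1 cm deep and grown in a hot house. After treatment, pots stayed in the hot house for 21 days, and phytotoxicity was then graded against an untreated control.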

false pimpernel [5] = assay: Test Example 2: herbicidal efficacy on rice paddy weeds post-emergence; assay type: in vivo, Lindernia pyxidaria; conditions: post-emergence, one leaf stage, 21 days after treatment
bulrush [6] = assay: Test Example 4: low dosage test for rice paddy weeds; assay type: in vivo, Scirpus juncoides; conditions: 300 g/ha as an active ingredient; plants treated at the one leaf stage; 21 days after treatment; vs untreated control
From the text: as §1
A 75 cm^2 plastic pot was filled with soil (clay loam) and planted seeds of bulrush which is a rice paddy weed. After covering the top with 75 cm^3 soil, the pot was filled with water so that the soil submerged under 5 cm depth of water and kept in a hot house. The test plants, at the one leaf stage, were treated with the solution of a formulation containing the compound of the present invention as an active ingredient at the predetermined effective dosage (300 g/ha as an active ingredient). The pots were kept in a hot house for 21 days after the treatment and the herbicidal efficacy was investigated and evaluated according to the standard in Test Example 1 by comparing with the untreated control. Further, as a comparative compound, the compound No. 6-28 described in the JP-A-2004-107322 was used.

bulrush [7] = assay: Test Example 1: herbicidal efficacy on rice paddy weeds pre-emergence; assay type: in vivo, Scirpus juncoides; conditions: 21 days
[8] = dosage 1000 g/ha, treated 5 days after transplantation

Compound | Burnyard grass post (herbicidal efficacy grade) (barnyard glass; dosage 1000 g/ha) | Bulrush post (herbicidal efficacy grade) (bulrush [1]; dosage 1000 g/ha) | Selective Index [2] | False pimpernel pre (herbicidal efficacy grade) (false pimpernel [3]; dosage 1000 g/ha) | Phytotoxicity to paddy rice [4, 8] | False pimpernel post (herbicidal efficacy grade) (false pimpernel [5]; dosage 1000 g/ha) | Herbicide effect to Bulrush (bulrush [6]) | Bulrush pre (herbicidal efficacy grade) (bulrush [7]; dosage 1000 g/ha) | Burnyard grass post (herbicidal efficacy grade) (barnyard glass; dosage 300 g/ha) | Bulrush post (herbicidal efficacy grade) (bulrush [1]; dosage 300 g/ha) | False pimpernel pre (herbicidal efficacy grade) (false pimpernel [3]; dosage 300 g/ha) | Phytotoxicity to paddy rice ([4]; dosage 300 g/ha) | False pimpernel post (herbicidal efficacy grade) (false pimpernel [5]; dosage 300 g/ha) | Bulrush pre (herbicidal efficacy grade) (bulrush [7]; dosage 300 g/ha)
CC(C)OC(=O)N(c1ccccc1CN1CC(C)(C2CC2)OC1=O)S(=O)(=O)C(F)(F)F (racemic) [1-118] | 4 (90%-100% of herbicidal efficacy or phytotoxicity) | 4 (90%-100% of herbicidal efficacy or phytotoxicity) | 30 | 4 (90%-100% of herbicidal efficacy or phytotoxicity) | 1 (1%-39% of herbicidal efficacy or phytotoxicity) | 4 (90%-100% of herbicidal efficacy or phytotoxicity) | 4 (90%-100% of herbicidal efficacy or phytotoxicity) | 4 (90%-100% of herbicidal efficacy or phytotoxicity) | – | – | – | – | – | –
COCCOC(=O)N(c1ccccc1CN1CC(C)(C2CC2)OC1=O)S(=O)(=O)C(F)(F)F (racemic) [1-119] | 4 (90%-100% of herbicidal efficacy or phytotoxicity) | 4 (90%-100% of herbicidal efficacy or phytotoxicity) | 30 | 4 (90%-100% of herbicidal efficacy or phytotoxicity) | 1 (1%-39% of herbicidal efficacy or phytotoxicity) | 4 (90%-100% of herbicidal efficacy or phytotoxicity) | 4 (90%-100% of herbicidal efficacy or phytotoxicity) | 4 (90%-100% of herbicidal efficacy or phytotoxicity) | – | – | – | – | – | –
CCCC1(C)CN(Cc2ccccc2NS(=O)(=O)C(F)(F)F)C(=O)O1 (racemic) [1-120] | – | – | 10 | – | – | – | 4 (90%-100% of herbicidal efficacy or phytotoxicity) | – | 3 (70%-89% of herbicidal efficacy or phytotoxicity) | 4 (90%-100% of herbicidal efficacy or phytotoxicity) | 4 (90%-100% of herbicidal efficacy or phytotoxicity) | 2 (40%-69% of herbicidal efficacy or phytotoxicity) | 4 (90%-100% of herbicidal efficacy or phytotoxicity) | 4 (90%-100% of herbicidal efficacy or phytotoxicity)
CCCC1(C)CN(Cc2ccccc2N(C(=O)OCC(C)C)S(=O)(=O)C(F)(F)F)C(=O)O1 (racemic) [1-122] | 4 (90%-100% of herbicidal efficacy or phytotoxicity) | 4 (90%-100% of herbicidal efficacy or phytotoxicity) | 10 | 4 (90%-100% of herbicidal efficacy or phytotoxicity) | 1 (1%-39% of herbicidal efficacy or phytotoxicity) | 4 (90%-100% of herbicidal efficacy or phytotoxicity) | 4 (90%-100% of herbicidal efficacy or phytotoxicity) | 4 (90%-100% of herbicidal efficacy or phytotoxicity) | – | – | – | – | – | –
COC(=O)N(c1ccccc1CN1CC(C)(CC(C)C)OC1=O)S(=O)(=O)C(F)(F)F (racemic) [1-124] | 4 (90%-100% of herbicidal efficacy or phytotoxicity) | 4 (90%-100% of herbicidal efficacy or phytotoxicity) | 10 | 4 (90%-100% of herbicidal efficacy or phytotoxicity) | 1 (1%-39% of herbicidal efficacy or phytotoxicity) | 4 (90%-100% of herbicidal efficacy or phytotoxicity) | 4 (90%-100% of herbicidal efficacy or phytotoxicity) | 4 (90%-100% of herbicidal efficacy or phytotoxicity) | – | – | – | – | – | –
CCOC(=O)N(c1ccccc1CN1CC(C)(CC(C)C)OC1=O)S(=O)(=O)C(F)(F)F (racemic) [1-125] | 4 (90%-100% of herbicidal efficacy or phytotoxicity) | 4 (90%-100% of herbicidal efficacy or phytotoxicity) | 10 | 4 (90%-100% of herbicidal efficacy or phytotoxicity) | 1 (1%-39% of herbicidal efficacy or phytotoxicity) | 4 (90%-100% of herbicidal efficacy or phytotoxicity) | 4 (90%-100% of herbicidal efficacy or phytotoxicity) | 4 (90%-100% of herbicidal efficacy or phytotoxicity) | – | – | – | – | – | –
CCCC1(C)CN(Cc2ccccc2N(C(=O)OC)S(=O)(=O)C(F)(F)F)C(=O)O1 (racemic) [1-126] | 4 (90%-100% of herbicidal efficacy or phytotoxicity) | 4 (90%-100% of herbicidal efficacy or phytotoxicity) | 10 | 4 (90%-100% of herbicidal efficacy or phytotoxicity) | 2 (40%-69% of herbicidal efficacy or phytotoxicity) | 4 (90%-100% of herbicidal efficacy or phytotoxicity) | 4 (90%-100% of herbicidal efficacy or phytotoxicity) | 4 (90%-100% of herbicidal efficacy or phytotoxicity) | – | – | – | – | – | –
CCCC1(C)CN(Cc2ccccc2N(C(=O)OCC)S(=O)(=O)C(F)(F)F)C(=O)O1 (racemic) [1-127] | 4 (90%-100% of herbicidal efficacy or phytotoxicity) | 4 (90%-100% of herbicidal efficacy or phytotoxicity) | 30 | 4 (90%-100% of herbicidal efficacy or phytotoxicity) | 1 (1%-39% of herbicidal efficacy or phytotoxicity) | 4 (90%-100% of herbicidal efficacy or phytotoxicity) | 4 (90%-100% of herbicidal efficacy or phytotoxicity) | 4 (90%-100% of herbicidal efficacy or phytotoxicity) | – | – | – | – | – | –
CC1COC(=O)N1Cc1ccccc1NS(=O)(=O)C(F)(F)F (stereo not shown) [1-3] | 4 (90%-100% of herbicidal efficacy or phytotoxicity) | 4 (90%-100% of herbicidal efficacy or phytotoxicity) | 3.3 | 4 (90%-100% of herbicidal efficacy or phytotoxicity) | 4 (90%-100% of herbicidal efficacy or phytotoxicity) | 4 (90%-100% of herbicidal efficacy or phytotoxicity) | 4 (90%-100% of herbicidal efficacy or phytotoxicity) | 4 (90%-100% of herbicidal efficacy or phytotoxicity) | – | – | – | – | – | –
CC(C)COC(=O)N(c1ccccc1CN1C(=O)OCC1C)S(=O)(=O)C(F)(F)F (stereo not shown) [1-4] | 4 (90%-100% of herbicidal efficacy or phytotoxicity) | 4 (90%-100% of herbicidal efficacy or phytotoxicity) | 10 | 4 (90%-100% of herbicidal efficacy or phytotoxicity) | 2 (40%-69% of herbicidal efficacy or phytotoxicity) | 4 (90%-100% of herbicidal efficacy or phytotoxicity) | 4 (90%-100% of herbicidal efficacy or phytotoxicity) | 4 (90%-100% of herbicidal efficacy or phytotoxicity) | – | – | – | – | – | –
CC1CN(Cc2ccccc2NS(=O)(=O)C(F)(F)F)C(=O)O1 (stereo not shown) [1-17] | 4 (90%-100% of herbicidal efficacy or phytotoxicity) | 4 (90%-100% of herbicidal efficacy or phytotoxicity) | 10 | 4 (90%-100% of herbicidal efficacy or phytotoxicity) | 0 (0% of herbicidal efficacy or phytotoxicity) | 4 (90%-100% of herbicidal efficacy or phytotoxicity) | 3 (70%-89% of herbicidal efficacy or phytotoxicity) | 4 (90%-100% of herbicidal efficacy or phytotoxicity) | – | – | – | – | – | –
